Literature values in patent publication US20230413813A1, “ANTIMICROBIAL COMPOSITION COMPRISING A POLYIMIDE” (The Procter & Gamble Company, priority 2022, published 2023).

solubility in water: ~1%
SMILES: CC(=O)O.CC(=O)O.NC(=N\CCCCCC/N=C(N)/N=C(\N)Nc1ccc(Cl)cc1)/N=C(\N)Nc1ccc(Cl)cc1 [Chlorhexidine diaceate, Chlorhexidine diacetate]
